# Source: ChEMBL document CHEMBL1126486, “Stable isosteres of neurotensin c-terminal pentapeptides derived by modification of the amide function” (Bioorg Med Chem Lett, 1993)
# Where a SMILES comes first, the peptide text is derived from it. [ ]: non-standard residue; d: D form. The star is where a group is joined. Adamantane1carbonyl = O=C(C12CC3CC(CC(C3)C1)C2)*; Orn = NCCC[C@H](N)C(=O)O; Boc = CC(C)(C)OC(=O)*
# How the values were obtained:
# Mus musculus [1] = test: Antinociceptive activity was determined using the phenylquinone writhing assay by […] administration; format: functional
# Mus musculus [2] = test: Antinociceptive activity was determined using the phenylquinone writhing assay by intravenous administration; format: functional
# [3] = molecular target: Neurotensin receptor type 1 (Rattus norvegicus, UniProt P20789); test: Neurotensin receptor binding affinity by displacement of [3H]- neurotensin
# Neurotensin receptor type 1, sequence (P20789 whole entry): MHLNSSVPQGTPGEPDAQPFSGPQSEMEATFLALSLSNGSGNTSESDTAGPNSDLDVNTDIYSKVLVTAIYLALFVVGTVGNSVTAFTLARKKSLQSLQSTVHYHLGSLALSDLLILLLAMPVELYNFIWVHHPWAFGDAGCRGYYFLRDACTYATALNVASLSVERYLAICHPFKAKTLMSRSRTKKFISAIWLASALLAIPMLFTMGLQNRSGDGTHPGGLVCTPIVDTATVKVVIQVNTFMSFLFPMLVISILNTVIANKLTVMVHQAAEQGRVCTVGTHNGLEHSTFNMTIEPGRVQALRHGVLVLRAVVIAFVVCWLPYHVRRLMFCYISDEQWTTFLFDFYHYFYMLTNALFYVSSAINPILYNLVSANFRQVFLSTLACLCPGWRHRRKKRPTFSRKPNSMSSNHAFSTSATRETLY
Molecule,Activity (Mus musculus [1]) [ug mouse-1],Activity (Mus musculus [2]) [mg/kg],Ki [3] [nM]
H-KPYIL-OH,5.9,>81,688
CC[C@H](C)[C@H](NNCC(=O)[C@H](Cc1ccc(O)cc1)NC(=O)[C@@H]1CCCN1NCC(=O)[C@H](CCCCN)NC(=O)C12C[C@H]3C[C@@H](C1)C[C@@H](C2)C3)C(=O)N[C@@H](CC(C)C)C(=O)O,>50,,3860
CC[C@H](C)[C@H](NC(=O)[C@H](Cc1ccc(O)cc1)NNCC(=O)[C@@H]1CCCN1C(=O)[C@H](CCCCN)NC(=O)C12C[C@H]3C[C@@H](C1)C[C@@H](C2)C3)C(=O)N[C@@H](CC(C)C)C(=O)O,4.5,20,1610
CC[C@H](C)[C@H](NC(=O)[C@H](Cc1ccc(O)cc1)N/C=C/C(=O)[C@@H]1CCCN1C(=O)[C@H](CCCCN)NC(=O)OC(C)(C)C)C(=O)N[C@@H](CC(C)C)C(=O)O,22,>27,1630
CC[C@H](C)[C@H](NNCC(=O)[C@H](Cc1ccc(O)cc1)NC(=O)[C@@H]1CCCN1C(=O)[C@H](CCCCN)NC(=O)C12C[C@H]3C[C@@H](C1)C[C@@H](C2)C3)C(=O)N[C@@H](CC(C)C)C(=O)O,>50,,5960
CC[C@H](C)[C@H](NC(=O)[C@H](Cc1ccc(O)cc1)NC(=O)[C@@H]1CCCN1C(=O)[C@H](CCCCN)NC(=O)C12CC3CC(CC(C3)C1)C2)C(=O)N[C@@H](CC(C)C)C(=O)O (Adamantane1carbonyl-KPYIL-OH),0.15,2.2,117
CC[C@H](C)[C@H](NC(=O)[C@H](Cc1ccc(O)cc1)NC(=O)[C@@H]1CCCN1C(=O)[C@H](CCCCN)NC(=O)OC(C)(C)C)C(=O)N[C@@H](CC(C)C)C(=O)O (Boc-KPYIL-OH),0.018,3,63
CC[C@H](C)[C@H](NC(=O)[C@H](Cc1ccc(O)cc1)NNCC(=O)[C@@H]1CCCN1C(=O)[C@H](CCCN)NC(=O)OC(C)(C)C)C(=O)N[C@@H](CC(C)C)C(=O)O,0.89,37,2980
CC[C@H](C)[C@H](NNCC(=O)[C@H](Cc1ccc(O)cc1)NC(=O)[C@@H]1CCCN1C(=O)[C@H](CCCN)NC(=O)OC(C)(C)C)C(=O)N[C@@H](CC(C)C)C(=O)O,29,,> 10000
CC[C@H](C)[C@H](NC(=O)[C@H](Cc1ccc(O)cc1)NC(=O)[C@@H]1CCCN1C(=O)[C@H](CCCN)NC(=O)OC(C)(C)C)C(=O)N[C@@H](CC(C)C)C(=O)O (Boc-[Orn]PYIL-OH),0.00097,0.74,82
